Measurements: US20250353891A1 (MEDIMMUNE LIMITED, priority 2022, published 2025)
Where two headings read alike, the source gives them in different places. Starred links: 1 amine or outer side, 2 acyl side, 3 side chain; linkers in the order of their positions; H or OH if unused. Non-standard residues stand in square brackets, D forms with d. Residues, ends and D or L forms follow the SMILES beside them. Groups on a side chain read outwards from the residue. *: point of attachment. C20 diacid = O=C(O)CCCCCCCCCCCCCCCCCCC(=O)*; C18 diacid = O=C(O)CCCCCCCCCCCCCCCCC(=O)*; γGlu = O=C(O)[C@H](CCC(=O)[*:2])N[*:1]; αMeF = C[C@](N)(Cc1ccccc1)C(=O)O; AEEA = NCCOCCOCC(=O)O; Aib = CC(C)(N)C(=O)O

Experiments:
[1] = molecular target: human GLP-1 receptor (hGLP-1R) (Homo sapiens, UniProt P43220); assay: cAMP production (HTRF) in CHO cells expressing hGLP-1R; type: cell-based; set-up: expressed in transfected cells; conditions: for EC50: Table 6, peptides modified at position 17, cAMP in CHO hGLP-1R cells, geometric mean; for % Relative Potency Ratio: Table 6, % GLP-1R activity relative to GLP-1 / % GlucR activity relative to glucagon
Outline: (§1)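 Read-out: HTRF cAMP (anti-cAMP cryptate donor, cAMP-d2 acceptor in conjugate/lysis buffer), converted to % Delta F and fitted by 4-parameter logistic for EC50. Cell densities were 1×10^5 cells/mL (hGLP-1R) or 2×10^5 cells/mL (hGCGR). Stimulation lasted 30 min at room temperature.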

[2] = molecular target: human glucagon receptor (hGCGR) (Homo sapiens, UniProt P47871); assay: cAMP production (HTRF) in CHO cells expressing hGCGR; type: cell-based; set-up: expressed in transfected cells; conditions: Table 6, peptides modified at position 17, cAMP in CHO hGCGR cells, geometric mean
Outline: as §1

Sequence of human glucagon receptor (hGCGR) (P47871 26-477): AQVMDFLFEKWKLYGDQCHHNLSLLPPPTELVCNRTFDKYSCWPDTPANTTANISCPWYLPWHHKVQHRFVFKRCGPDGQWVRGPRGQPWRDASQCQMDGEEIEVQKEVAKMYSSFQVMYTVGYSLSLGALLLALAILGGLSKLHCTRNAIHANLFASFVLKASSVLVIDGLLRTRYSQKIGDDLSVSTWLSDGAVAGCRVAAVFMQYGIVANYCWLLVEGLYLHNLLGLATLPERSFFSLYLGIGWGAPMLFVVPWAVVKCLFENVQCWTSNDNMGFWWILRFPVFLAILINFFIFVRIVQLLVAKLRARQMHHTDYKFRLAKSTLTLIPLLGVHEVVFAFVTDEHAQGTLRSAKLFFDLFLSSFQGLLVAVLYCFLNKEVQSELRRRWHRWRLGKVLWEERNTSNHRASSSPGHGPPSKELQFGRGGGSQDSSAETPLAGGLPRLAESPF
Sequence of human GLP-1 receptor (hGLP-1R) (P43220 24-463): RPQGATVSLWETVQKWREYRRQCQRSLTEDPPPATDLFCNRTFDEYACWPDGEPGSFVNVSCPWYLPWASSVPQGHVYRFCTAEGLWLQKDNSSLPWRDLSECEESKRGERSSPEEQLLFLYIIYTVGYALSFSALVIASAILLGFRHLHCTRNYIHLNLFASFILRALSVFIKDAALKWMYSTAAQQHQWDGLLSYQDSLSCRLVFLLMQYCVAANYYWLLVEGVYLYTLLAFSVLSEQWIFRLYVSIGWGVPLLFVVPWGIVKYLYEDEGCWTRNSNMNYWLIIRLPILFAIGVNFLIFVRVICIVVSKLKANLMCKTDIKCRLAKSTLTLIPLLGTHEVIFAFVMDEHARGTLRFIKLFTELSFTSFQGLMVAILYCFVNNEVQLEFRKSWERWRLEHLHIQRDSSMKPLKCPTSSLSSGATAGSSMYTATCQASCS

| Compound | EC50 ([1]; read-out: hGLP-1R EC50) | % Relative Potency Ratio [1] | EC50 ([2]; read-out: hGluc-R EC50) | EC50 ([1]; hGLP-1R EC50 (pM)) | EC50 ([2]; hGluc-R EC50 (pM)) |
| --- | --- | --- | --- | --- | --- |
| CC(C)C[C@H](NC(=O)[C@H](Cc1c[nH]c2ccccc12)NC(=O)[C@H](CCC(N)=O)NC(=O)[C@@H](NC(=O)[C@H](Cc1ccccc1)NC(=O)[C@H](CC(=O)O)NC(=O)[C@H](CCCNC(=N)N)NC(=O)[C@H](C)NC(=O)[C@H](CCCNC(=N)N)NC(=O)[C@H](CCCCNC(=O)COCCOCCNC(=O)COCCOCCNC(=O)CC[C@H](NC(=O)CCCCCCCCCCCCCCCCC(=O)O)C(=O)O)NC(=O)[C@@H](NC(=O)[C@H](CCC(=O)O)NC(=O)[C@H](CC(C)C)NC(=O)[C@](C)(Cc1ccccc1)NC(=O)[C@H](CCCCN)NC(=O)[C@H](CO)NC(=O)[C@@H](NC(=O)[C@H](CC(=O)O)NC(=O)[C@H](CO)NC(=O)[C@@H](NC(=O)[C@H](Cc1ccccc1)NC(=O)[C@@H](NC(=O)CNC(=O)[C@H](CCC(N)=O)NC(=O)C(C)(C)NC(=O)[C@@H](N)Cc1c[nH]cn1)[C@@H](C)O)[C@@H](C)O)C(C)C)[C@@H](C)O)C(C)C)C(=O)N[C@@H](CC(C)C)C(=O)N[C@@H](CCC(=O)O)C(=O)NC(C)(C)C(=O)NCC(=O)O [Peptide 445] (H-H[Aib]QGTFTSDVSK[αMeF]LETK([AEEA-AEEA-γGlu-C18 diacid])RARDFVQWLLE[Aib]G-OH) | – | – | – | 33 pM | 684 pM |
| CC(C)C[C@H](NC(=O)[C@H](Cc1c[nH]c2ccccc12)NC(=O)[C@H](CCCNC(=N)N)NC(=O)[C@@H](NC(=O)[C@H](Cc1ccccc1)NC(=O)[C@H](CC(=O)O)NC(=O)[C@H](CCC(N)=O)NC(=O)[C@H](C)NC(=O)[C@H](CCCNC(=N)N)NC(=O)[C@H](CCCCNC(=O)COCCOCCNC(=O)COCCOCCNC(=O)CC[C@H](NC(=O)CC[C@H](NC(=O)CCCCCCCCCCCCCCCCCCC(=O)O)C(=O)O)C(=O)O)NC(=O)[C@H](CCCNC(=N)N)NC(=O)[C@H](CC(=O)O)NC(=O)[C@H](CC(C)C)NC(=O)[C@](C)(Cc1ccccc1)NC(=O)[C@H](CCCCN)NC(=O)[C@H](CO)NC(=O)[C@@H](NC(=O)[C@H](CC(=O)O)NC(=O)[C@H](CO)NC(=O)[C@@H](NC(=O)[C@H](Cc1ccccc1)NC(=O)[C@@H](NC(=O)CNC(=O)[C@H](CCC(N)=O)NC(=O)C(C)(C)NC(=O)[C@@H](N)Cc1c[nH]cn1)[C@@H](C)O)[C@@H](C)O)C(C)C)C(C)C)C(=O)N[C@H](C(=O)NC(C)(C)C(=O)N[C@@H](CCC(=O)O)C(N)=O)C(C)C [Peptide 447] (H-H[Aib]QGTFTSDVSK[αMeF]LDRK([AEEA-AEEA-γGlu-γGlu-C20 diacid])RAQDFVRWLV[Aib]E-NH2; N-terminus assumed) | 170 pM | 7.8 | 667 pM | – | – |
| CC(C)C[C@H](NC(=O)[C@H](Cc1c[nH]c2ccccc12)NC(=O)[C@H](CCC(N)=O)NC(=O)[C@@H](NC(=O)[C@H](Cc1ccccc1)NC(=O)[C@H](CC(=O)O)NC(=O)[C@H](CCCNC(=N)N)NC(=O)[C@H](C)NC(=O)[C@H](CCCNC(=N)N)NC(=O)[C@H](CCCCNC(=O)COCCOCCNC(=O)COCCOCCNC(=O)CC[C@H](NC(=O)CC[C@H](NC(=O)CCCCCCCCCCCCCCCCCCC(=O)O)C(=O)O)C(=O)O)NC(=O)[C@@H](NC(=O)[C@H](CC(=O)O)NC(=O)[C@H](CC(C)C)NC(=O)[C@](C)(Cc1ccccc1)NC(=O)[C@H](CCCCN)NC(=O)[C@H](CO)NC(=O)[C@@H](NC(=O)[C@H](CC(=O)O)NC(=O)[C@H](CO)NC(=O)[C@@H](NC(=O)[C@H](Cc1ccccc1)NC(=O)[C@@H](NC(=O)CNC(=O)[C@H](CCC(N)=O)NC(=O)C(C)(C)NC(=O)[C@@H](N)Cc1c[nH]cn1)[C@@H](C)O)[C@@H](C)O)C(C)C)[C@@H](C)O)C(C)C)C(=O)N[C@@H](CC(C)C)C(=O)N[C@@H](CCC(=O)O)C(=O)NC(C)(C)C(=O)NCC(=O)O [Peptide 449] | 207 pM | 2.3 | 242 pM | – | – |
| CC(C)C[C@H](NC(=O)[C@H](Cc1c[nH]c2ccccc12)NC(=O)[C@H](CC(C)C)NC(=O)[C@@H](NC(=O)[C@H](Cc1ccccc1)NC(=O)[C@H](CC(=O)O)NC(=O)[C@H](CCCNC(=N)N)NC(=O)[C@H](C)NC(=O)[C@H](CCCNC(=N)N)NC(=O)[C@H](CCCCNC(=O)COCCOCCNC(=O)COCCOCCNC(=O)CC[C@H](NC(=O)CCCCCCCCCCCCCCCCCCC(=O)O)C(=O)O)NC(=O)[C@H](CCCCN)NC(=O)[C@H](CC(=O)O)NC(=O)[C@H](CC(C)C)NC(=O)[C@](C)(Cc1ccccc1)NC(=O)[C@H](CCCCN)NC(=O)[C@H](CO)NC(=O)[C@@H](NC(=O)[C@H](CC(=O)O)NC(=O)[C@H](CO)NC(=O)[C@@H](NC(=O)[C@H](Cc1ccccc1)NC(=O)[C@@H](NC(=O)CNC(=O)[C@H](CCC(N)=O)NC(=O)C(C)(C)NC(=O)[C@@H](N)Cc1c[nH]cn1)[C@@H](C)O)[C@@H](C)O)C(C)C)C(C)C)C(=O)N[C@@H](CC(C)C)C(=O)NC(C)(C)C(=O)N[C@@H](CCC(=O)O)C(N)=O [Peptide 451] (H-H[Aib]QGTFTSDVSK[αMeF]LDKK([AEEA-AEEA-γGlu-C20 diacid])RARDFVLWLL[Aib]E-NH2; N-terminus assumed) | 895 pM | 1.1 | 503 pM | – | – |

Continued, in another order:

| EC50 ([1]; read-out: hGLP-1R EC50) | % Relative Potency Ratio [1] | EC50 ([2]; read-out: hGluc-R EC50) | Compound | EC50 ([1]; hGLP-1R EC50 (pM)) | EC50 ([2]; hGluc-R EC50 (pM)) |
| --- | --- | --- | --- | --- | --- |
| 32.9 pM | 22.0 | 366 pM | CC(C)C[C@H](NC(=O)[C@H](Cc1c[nH]c2ccccc12)NC(=O)[C@H](CCCNC(=N)N)NC(=O)[C@@H](NC(=O)[C@H](Cc1ccccc1)NC(=O)[C@H](CC(=O)O)NC(=O)[C@H](CCC(N)=O)NC(=O)[C@H](C)NC(=O)[C@H](CCCNC(=N)N)NC(=O)[C@H](CCCCNC(=O)COCCOCCNC(=O)COCCOCCNC(=O)CC[C@H](NC(=O)CC[C@H](NC(=O)CCCCCCCCCCCCCCCCC(=O)O)C(=O)O)C(=O)O)NC(=O)[C@H](CCCNC(=N)N)NC(=O)[C@H](CC(=O)O)NC(=O)[C@H](CC(C)C)NC(=O)[C@](C)(Cc1ccccc1)NC(=O)[C@H](CCCCN)NC(=O)[C@H](CO)NC(=O)[C@@H](NC(=O)[C@H](CC(=O)O)NC(=O)[C@H](CO)NC(=O)[C@@H](NC(=O)[C@H](Cc1ccccc1)NC(=O)[C@@H](NC(=O)CNC(=O)[C@H](CCC(N)=O)NC(=O)C(C)(C)NC(=O)[C@@H](N)Cc1c[nH]cn1)[C@@H](C)O)[C@@H](C)O)C(C)C)C(C)C)C(=O)N[C@H](C(=O)NC(C)(C)C(=O)N[C@@H](CCC(=O)O)C(N)=O)C(C)C [Peptide 446] (H-H[Aib]QGTFTSDVSK[αMeF]LDRK([AEEA-AEEA-γGlu-γGlu-C18 diacid])RAQDFVRWLV[Aib]E-NH2; N-terminus assumed) | – | – |
| 53.1 pM | 1.1 | 29 pM | CC(C)C[C@H](NC(=O)[C@H](Cc1c[nH]c2ccccc12)NC(=O)[C@H](CCCNC(=N)N)NC(=O)[C@@H](NC(=O)[C@H](Cc1ccccc1)NC(=O)[C@H](CC(=O)O)NC(=O)[C@H](CCCNC(=N)N)NC(=O)[C@H](C)NC(=O)[C@H](CCCNC(=N)N)NC(=O)[C@H](CCCCNC(=O)COCCOCCNC(=O)COCCOCCNC(=O)CC[C@H](NC(=O)CC[C@H](NC(=O)CCCCCCCCCCCCCCCCC(=O)O)C(=O)O)C(=O)O)NC(=O)[C@H](CCCCN)NC(=O)[C@H](CC(=O)O)NC(=O)[C@H](CC(C)C)NC(=O)[C@](C)(Cc1ccccc1)NC(=O)[C@H](CCCCN)NC(=O)[C@H](CO)NC(=O)[C@@H](NC(=O)[C@H](CC(=O)O)NC(=O)[C@H](CO)NC(=O)[C@@H](NC(=O)[C@H](Cc1ccccc1)NC(=O)[C@@H](NC(=O)CNC(=O)[C@H](CCC(N)=O)NC(=O)C(C)(C)NC(=O)[C@@H](N)Cc1c[nH]cn1)[C@@H](C)O)[C@@H](C)O)C(C)C)C(C)C)C(=O)N[C@@H](CC(C)C)C(=O)NC(C)(C)C(=O)N[C@@H](CCC(=O)O)C(=O)O [Peptide 448] (H-H[Aib]QGTFTSDVSK[αMeF]LDKK([AEEA-AEEA-γGlu-γGlu-C18 diacid])RARDFVRWLL[Aib]E-OH) | – | – |
| 57.3 pM | 2.0 | 57.8 pM | CC(C)C[C@H](NC(=O)[C@H](Cc1c[nH]c2ccccc12)NC(=O)[C@H](CCCNC(=N)N)NC(=O)[C@@H](NC(=O)[C@H](Cc1ccccc1)NC(=O)[C@H](CC(=O)O)NC(=O)[C@H](CCC(N)=O)NC(=O)[C@H](C)NC(=O)[C@H](CCCNC(=N)N)NC(=O)[C@H](CCCCNC(=O)COCCOCCNC(=O)COCCOCCNC(=O)CC[C@H](NC(=O)CC[C@H](NC(=O)CCCCCCCCCCCCCCCCC(=O)O)C(=O)O)C(=O)O)NC(=O)[C@H](CCCCN)NC(=O)[C@H](CC(=O)O)NC(=O)[C@H](CC(C)C)NC(=O)[C@](C)(Cc1ccccc1)NC(=O)[C@H](CCCCN)NC(=O)[C@H](CO)NC(=O)[C@@H](NC(=O)[C@H](CC(=O)O)NC(=O)[C@H](CO)NC(=O)[C@@H](NC(=O)[C@H](Cc1ccccc1)NC(=O)[C@@H](NC(=O)CNC(=O)[C@H](CCC(N)=O)NC(=O)C(C)(C)NC(=O)[C@@H](N)Cc1c[nH]cn1)[C@@H](C)O)[C@@H](C)O)C(C)C)C(C)C)C(=O)N[C@@H](CC(C)C)C(=O)N[C@@H](CCC(=O)O)C(=O)NC(C)(C)C(=O)NCC(=O)O [Peptide 450] (H-H[Aib]QGTFTSDVSK[αMeF]LDKK([AEEA-AEEA-γGlu-γGlu-C18 diacid])RAQDFVRWLLE[Aib]G-OH; N-terminus assumed) | – | – |
